Values belong to the compound of their own block, whether it stands above or below them.
Columns and labels:
Format in all cases: biochemical
[1] = target: T1, p110β (PI 3-Kβ, p110β/p85α) (Homo sapiens, UniProt P42338); experiment: HTRF lipid kinase assay; details: […] ATP, PI([…])P2 substrate, His-tag removed
T1 construct: gene PIK3CB; full-length p110β with N-His6-rTEV tag (tag removed by rTEV) co-expressed with full-length p85α; baculovirus/Sf9; IMAC, MonoQ; heterodimer; with Phosphatidylinositol 3-kinase regulatory subunit alpha
T1 sequence (P42338 whole entry): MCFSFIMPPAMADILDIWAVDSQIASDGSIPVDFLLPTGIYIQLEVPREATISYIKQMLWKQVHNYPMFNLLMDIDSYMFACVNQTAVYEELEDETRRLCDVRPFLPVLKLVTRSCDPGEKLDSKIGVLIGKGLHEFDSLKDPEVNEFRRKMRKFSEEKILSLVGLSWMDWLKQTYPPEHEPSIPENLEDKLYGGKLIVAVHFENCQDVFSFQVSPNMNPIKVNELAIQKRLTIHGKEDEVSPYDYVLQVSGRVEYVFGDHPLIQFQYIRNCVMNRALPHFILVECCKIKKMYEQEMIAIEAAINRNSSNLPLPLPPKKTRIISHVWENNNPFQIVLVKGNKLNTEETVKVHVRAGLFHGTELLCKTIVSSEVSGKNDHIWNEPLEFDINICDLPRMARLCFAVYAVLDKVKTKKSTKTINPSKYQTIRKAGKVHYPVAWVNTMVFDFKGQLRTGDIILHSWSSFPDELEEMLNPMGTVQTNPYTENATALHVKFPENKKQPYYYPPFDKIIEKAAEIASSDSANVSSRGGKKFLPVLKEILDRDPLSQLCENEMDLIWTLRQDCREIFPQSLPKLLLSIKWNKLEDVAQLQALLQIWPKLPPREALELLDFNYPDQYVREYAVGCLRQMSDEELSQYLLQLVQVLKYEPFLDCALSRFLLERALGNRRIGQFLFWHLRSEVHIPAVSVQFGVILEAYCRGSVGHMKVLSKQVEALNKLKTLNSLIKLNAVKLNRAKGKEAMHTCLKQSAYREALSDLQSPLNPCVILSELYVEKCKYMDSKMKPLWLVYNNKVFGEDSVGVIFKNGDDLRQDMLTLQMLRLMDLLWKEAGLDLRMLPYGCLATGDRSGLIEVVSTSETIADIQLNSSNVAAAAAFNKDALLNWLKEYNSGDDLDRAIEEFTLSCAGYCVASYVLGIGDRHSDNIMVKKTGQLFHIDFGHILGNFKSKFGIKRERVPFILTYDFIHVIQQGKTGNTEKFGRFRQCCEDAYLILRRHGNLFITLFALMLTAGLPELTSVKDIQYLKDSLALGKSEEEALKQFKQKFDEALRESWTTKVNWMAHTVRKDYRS
T1 sequence (P27986 2-724 partner): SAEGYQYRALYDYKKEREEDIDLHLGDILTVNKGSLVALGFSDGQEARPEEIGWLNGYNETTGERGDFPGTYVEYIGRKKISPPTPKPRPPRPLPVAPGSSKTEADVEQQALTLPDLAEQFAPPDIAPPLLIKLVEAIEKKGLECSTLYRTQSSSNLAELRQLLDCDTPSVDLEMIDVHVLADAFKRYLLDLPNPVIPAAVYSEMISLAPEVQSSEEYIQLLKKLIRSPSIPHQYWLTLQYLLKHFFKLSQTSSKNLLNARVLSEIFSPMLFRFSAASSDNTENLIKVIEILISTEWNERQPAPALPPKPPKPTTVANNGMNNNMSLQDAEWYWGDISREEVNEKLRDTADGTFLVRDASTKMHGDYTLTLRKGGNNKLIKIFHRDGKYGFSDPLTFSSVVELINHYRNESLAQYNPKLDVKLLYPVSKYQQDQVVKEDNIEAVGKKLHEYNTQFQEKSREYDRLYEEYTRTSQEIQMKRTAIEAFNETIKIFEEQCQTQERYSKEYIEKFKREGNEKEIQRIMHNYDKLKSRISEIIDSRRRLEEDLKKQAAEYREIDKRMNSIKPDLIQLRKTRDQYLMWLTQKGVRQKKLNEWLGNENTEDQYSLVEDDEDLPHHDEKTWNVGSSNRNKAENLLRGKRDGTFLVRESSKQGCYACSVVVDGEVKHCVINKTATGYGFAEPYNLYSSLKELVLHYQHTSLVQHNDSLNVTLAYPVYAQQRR

p110γ (PI 3-Kγ) [2] = target: T2, p110γ (PI 3-Kγ) (Homo sapiens, UniProt P48736); experiment: HTRF lipid kinase assay
T2 construct: gene PIK3CG; catalytic subunit only, N-His6-rTEV tag (tag removed by rTEV); baculovirus/Sf9
T2 sequence (P48736 whole entry): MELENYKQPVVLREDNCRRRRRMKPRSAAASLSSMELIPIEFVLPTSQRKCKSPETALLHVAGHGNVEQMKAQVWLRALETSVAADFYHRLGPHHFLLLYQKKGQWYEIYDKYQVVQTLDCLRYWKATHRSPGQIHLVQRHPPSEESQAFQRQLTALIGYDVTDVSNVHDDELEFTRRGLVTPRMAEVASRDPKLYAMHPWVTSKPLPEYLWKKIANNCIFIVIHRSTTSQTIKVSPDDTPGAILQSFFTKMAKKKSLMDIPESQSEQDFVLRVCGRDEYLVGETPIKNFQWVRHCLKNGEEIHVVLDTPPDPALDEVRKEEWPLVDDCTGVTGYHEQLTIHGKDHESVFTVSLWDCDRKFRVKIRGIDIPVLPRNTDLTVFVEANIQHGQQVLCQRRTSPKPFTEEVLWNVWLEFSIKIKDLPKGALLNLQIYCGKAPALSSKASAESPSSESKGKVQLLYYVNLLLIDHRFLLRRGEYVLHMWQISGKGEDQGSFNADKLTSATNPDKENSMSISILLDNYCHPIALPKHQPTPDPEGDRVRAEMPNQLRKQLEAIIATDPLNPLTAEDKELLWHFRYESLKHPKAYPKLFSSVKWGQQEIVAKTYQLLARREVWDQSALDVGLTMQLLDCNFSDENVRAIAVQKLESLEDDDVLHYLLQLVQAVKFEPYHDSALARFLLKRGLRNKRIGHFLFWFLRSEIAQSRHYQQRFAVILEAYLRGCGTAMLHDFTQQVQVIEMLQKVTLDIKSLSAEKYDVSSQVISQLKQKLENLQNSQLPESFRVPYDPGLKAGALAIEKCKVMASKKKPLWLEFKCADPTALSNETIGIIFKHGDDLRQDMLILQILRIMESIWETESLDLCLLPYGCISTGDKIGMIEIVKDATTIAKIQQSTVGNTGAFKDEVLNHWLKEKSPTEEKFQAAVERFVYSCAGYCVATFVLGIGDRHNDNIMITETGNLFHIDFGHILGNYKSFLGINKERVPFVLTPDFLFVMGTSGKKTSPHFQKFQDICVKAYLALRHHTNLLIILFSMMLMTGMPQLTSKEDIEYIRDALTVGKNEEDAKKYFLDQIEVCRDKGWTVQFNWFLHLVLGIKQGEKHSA

[3] = target: T3, p110δ (PI 3-Kδ, p110δ/p85α) (Homo sapiens, UniProt O00329); experiment: HTRF kinetics, […] ATP; details: PI([…])P2 co-substrate, His-tag removed
T3 construct: gene PIK3CD; full-length p110δ with N-His6-rTEV tag (tag removed by rTEV) co-expressed with full-length p85α; baculovirus/Sf9; IMAC, MonoQ; heterodimer; with Phosphatidylinositol 3-kinase regulatory subunit alpha
T3 sequence (O00329 whole entry): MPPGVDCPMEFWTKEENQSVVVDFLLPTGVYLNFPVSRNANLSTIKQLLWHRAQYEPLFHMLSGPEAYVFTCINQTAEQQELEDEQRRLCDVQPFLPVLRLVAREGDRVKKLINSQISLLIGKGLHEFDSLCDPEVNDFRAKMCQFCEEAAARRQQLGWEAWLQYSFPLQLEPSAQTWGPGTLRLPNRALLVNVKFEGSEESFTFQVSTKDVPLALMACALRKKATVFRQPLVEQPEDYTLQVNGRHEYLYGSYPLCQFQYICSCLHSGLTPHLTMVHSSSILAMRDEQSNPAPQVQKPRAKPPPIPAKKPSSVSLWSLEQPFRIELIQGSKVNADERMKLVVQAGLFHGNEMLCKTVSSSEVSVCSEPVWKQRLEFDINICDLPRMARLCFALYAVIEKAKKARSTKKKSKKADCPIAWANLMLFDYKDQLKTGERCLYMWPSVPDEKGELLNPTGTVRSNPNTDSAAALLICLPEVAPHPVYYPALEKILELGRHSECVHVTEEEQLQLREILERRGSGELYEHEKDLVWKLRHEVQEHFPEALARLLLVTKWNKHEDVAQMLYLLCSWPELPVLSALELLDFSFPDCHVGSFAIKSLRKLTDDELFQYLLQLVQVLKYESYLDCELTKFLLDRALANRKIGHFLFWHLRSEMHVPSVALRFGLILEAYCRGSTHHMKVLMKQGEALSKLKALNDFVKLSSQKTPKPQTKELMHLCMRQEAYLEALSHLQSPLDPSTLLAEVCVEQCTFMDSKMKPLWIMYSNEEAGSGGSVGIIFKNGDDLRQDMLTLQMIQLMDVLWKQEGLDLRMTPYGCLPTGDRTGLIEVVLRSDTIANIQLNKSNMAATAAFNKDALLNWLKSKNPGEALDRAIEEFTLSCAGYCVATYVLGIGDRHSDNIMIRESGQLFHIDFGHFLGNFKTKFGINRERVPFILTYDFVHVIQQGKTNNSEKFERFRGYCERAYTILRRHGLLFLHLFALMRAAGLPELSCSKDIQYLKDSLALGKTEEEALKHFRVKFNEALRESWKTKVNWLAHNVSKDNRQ
T3 sequence (P27986 2-724 partner): as the sequence (P27986 2-724 partner) above

[4] = target: T1, p110β (PI 3-Kβ, p110β/p85α); experiment: HTRF kinetics, […] ATP; details: PI([…])P2 co-substrate, His-tag removed
[5] = target: T4, p110α (PI 3-Kα, p110α/p85α) (Homo sapiens, UniProt P42336); experiment: HTRF kinetics, […] ATP; details: PI([…])P2 co-substrate, His-tag removed
T4 construct: gene PIK3CA; full-length p110α with N-His6-rTEV tag (tag removed by rTEV) co-expressed with full-length p85α; baculovirus/Sf9; IMAC, MonoQ; heterodimer; with Phosphatidylinositol 3-kinase regulatory subunit alpha
T4 sequence (P42336 whole entry): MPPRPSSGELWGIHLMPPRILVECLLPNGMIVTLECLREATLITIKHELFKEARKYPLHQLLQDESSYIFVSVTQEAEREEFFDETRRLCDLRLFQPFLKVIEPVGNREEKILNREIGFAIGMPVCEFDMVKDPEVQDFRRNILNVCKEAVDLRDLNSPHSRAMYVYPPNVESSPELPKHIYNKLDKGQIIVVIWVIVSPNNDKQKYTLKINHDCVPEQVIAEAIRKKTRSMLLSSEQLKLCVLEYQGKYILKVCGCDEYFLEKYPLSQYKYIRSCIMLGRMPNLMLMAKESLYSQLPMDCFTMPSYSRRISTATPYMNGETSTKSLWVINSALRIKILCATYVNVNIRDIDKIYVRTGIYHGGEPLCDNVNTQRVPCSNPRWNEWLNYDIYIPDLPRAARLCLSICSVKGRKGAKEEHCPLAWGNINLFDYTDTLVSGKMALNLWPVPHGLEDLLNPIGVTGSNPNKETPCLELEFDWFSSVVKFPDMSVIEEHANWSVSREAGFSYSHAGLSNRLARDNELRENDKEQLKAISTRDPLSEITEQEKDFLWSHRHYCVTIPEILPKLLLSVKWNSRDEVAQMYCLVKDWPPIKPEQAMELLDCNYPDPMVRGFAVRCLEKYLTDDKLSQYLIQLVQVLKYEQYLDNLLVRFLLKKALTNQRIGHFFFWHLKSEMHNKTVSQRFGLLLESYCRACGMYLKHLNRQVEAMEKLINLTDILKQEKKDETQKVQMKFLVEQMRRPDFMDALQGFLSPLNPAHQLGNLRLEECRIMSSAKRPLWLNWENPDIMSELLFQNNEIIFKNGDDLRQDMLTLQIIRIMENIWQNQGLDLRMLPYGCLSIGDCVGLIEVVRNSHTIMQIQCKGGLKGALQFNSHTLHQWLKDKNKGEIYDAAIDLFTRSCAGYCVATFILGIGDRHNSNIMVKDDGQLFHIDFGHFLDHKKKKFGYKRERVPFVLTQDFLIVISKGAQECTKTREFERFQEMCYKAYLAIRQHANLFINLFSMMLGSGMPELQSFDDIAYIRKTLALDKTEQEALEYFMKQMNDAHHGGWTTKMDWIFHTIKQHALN
T4 sequence (P27986 2-724 partner): as the sequence (P27986 2-724 partner) above

p110γ (PI 3-Kγ) [6] = target: T2, p110γ (PI 3-Kγ); experiment: HTRF kinetics, […] ATP; details: PI([…])P2 co-substrate, His-tag removed

IC50 [1]: 14 nM
Compound: Cc1cc([C@H](C)Nc2ccccc2)c2oc(N3CCOCC3)cc(=O)c2c1 [PIK108]

IC50 (p110γ (PI 3-Kγ) [2]): 26 nM
Compound: Cc1ccc([N+](=O)[O-])cc1S(=O)(=O)N(C)/N=C/c1cnc2ccc(Br)cn12 [PIK-75]

Km [3]: (B) Km for ATP in μM
Km [4]: (B) Km for ATP in μM
Km [5]: (B) Km for ATP in μM
Km (p110γ (PI 3-Kγ) [6]): (B) Km for ATP in μM
Compound: Nc1ncnc2c1ncn2[C@@H]1O[C@H](COP(=O)(O)OP(=O)(O)OP(=O)(O)O)[C@@H](O)[C@H]1O [ATP]

Reference: paper PMC3817851, “Enzyme activity effects of N-terminal His-tag attached to catalytic sub-unit of phosphoinositide-3-kinase” (Bioscience Reports, 2013)
